Laboratory results published in PubChem BioAssay AID1918994 (Molecular Pharmacology Branch, DTP, NCI, 2023).

System: 292921-168-R-J2-PDC complex spheroid growth
Experiment: Anticancer human tumor 292921-168-R-J2-PDC patient-derived pancreatic carcinoma cell line growth inhibition [AhR]
Settings: for IC50: curve of first compound; for viability, T/C: stronger effect = lower value; active means viability on the fitted dose curve at most 10% of control; inactive means the rest
Procedure, shortened: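 Spheroids combined tumor cells with HUVEC endothelial cells and human MSCs as stroma. AhR antagonists were paired with standard or investigational drugs, each dosed in half-log steps down from near clinical Cmax, or from 10 microM where Cmax was unknown.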

[1] = second compound 0.1 µM, first compound 0.0316 µM
[2] = second compound 0.1 µM, first compound 0.1 µM
[3] = second compound 0.1 µM, first compound 0.316 µM
[4] = second compound 0.1 µM, first compound 1 µM
[5] = second compound 0.1 µM, first compound 3.16 µM
[6] = second compound 0.1 µM, first compound 10 µM
[7] = second compound 0.316 µM, first compound 0.0316 µM
[8] = second compound 0.316 µM, first compound 0.1 µM
[9] = second compound 0.316 µM, first compound 0.316 µM
[10] = second compound 0.316 µM, first compound 1 µM
[11] = second compound 0.316 µM, first compound 3.16 µM
[12] = second compound 0.316 µM, first compound 10 µM
[13] = second compound 1 µM, first compound 0.0316 µM
[14] = second compound 1 µM, first compound 0.1 µM
[15] = second compound 1 µM, first compound 0.316 µM
[16] = second compound 1 µM, first compound 1 µM
[17] = second compound 1 µM, first compound 3.16 µM
[18] = second compound 1 µM, first compound 10 µM
[19] = second compound 3.16 µM, first compound 0.0316 µM
[20] = second compound 3.16 µM, first compound 0.1 µM
[21] = second compound 3.16 µM, first compound 0.316 µM
[22] = second compound 3.16 µM, first compound 1 µM
[23] = second compound 3.16 µM, first compound 3.16 µM
[24] = second compound 3.16 µM, first compound 10 µM
[25] = second compound 10 µM, first compound 0.0316 µM
[26] = second compound 10 µM, first compound 0.1 µM
[27] = second compound 10 µM, first compound 0.316 µM
[28] = second compound 10 µM, first compound 1 µM
[29] = second compound 10 µM, first compound 3.16 µM
[30] = second compound 10 µM, first compound 10 µM
[31] = second compound 0.1 µM, first compound 0.00949 µM
[32] = second compound 0.1 µM, first compound 0.03 µM
[33] = second compound 0.1 µM, first compound 0.0949 µM
[34] = second compound 0.1 µM, first compound 0.3 µM
[35] = second compound 0.1 µM, first compound 0.949 µM
[36] = second compound 0.1 µM, first compound 3 µM
[37] = second compound 0.316 µM, first compound 0.00949 µM
[38] = second compound 0.316 µM, first compound 0.03 µM
[39] = second compound 0.316 µM, first compound 0.0949 µM
[40] = second compound 0.316 µM, first compound 0.3 µM
[41] = second compound 0.316 µM, first compound 0.949 µM
[42] = second compound 0.316 µM, first compound 3 µM
[43] = second compound 1 µM, first compound 0.00949 µM
[44] = second compound 1 µM, first compound 0.03 µM
[45] = second compound 1 µM, first compound 0.0949 µM
[46] = second compound 1 µM, first compound 0.3 µM
[47] = second compound 1 µM, first compound 0.949 µM
[48] = second compound 1 µM, first compound 3 µM
[49] = second compound 3.16 µM, first compound 0.00949 µM
[50] = second compound 3.16 µM, first compound 0.03 µM
[51] = second compound 3.16 µM, first compound 0.0949 µM
[52] = second compound 3.16 µM, first compound 0.3 µM
[53] = second compound 3.16 µM, first compound 0.949 µM
[54] = second compound 3.16 µM, first compound 3 µM
[55] = second compound 10 µM, first compound 0.00949 µM
[56] = second compound 10 µM, first compound 0.03 µM
[57] = second compound 10 µM, first compound 0.0949 µM
[58] = second compound 10 µM, first compound 0.3 µM
[59] = second compound 10 µM, first compound 0.949 µM
[60] = second compound 10 µM, first compound 3 µM
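Further: spheroids exposed to compounds for seven days after three days of growth.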

CC1(C)CCC(CN2CCN(c3ccc(C(=O)NS(=O)(=O)c4ccc(NCC5CCOCC5)c([N+](=O)[O-])c4)c(Oc4cnc5[nH]ccc5c4)c3)CC2)=C(c2ccc(Cl)cc2)C1 + CC(CO)NC(=O)c1cc(-c2ccc(Cl)cc2)nn(-c2cnn(C)c2)c1=O
6.19 µM: IC50 (second compound 0.1 µM)
inactive: viability, T/C [1] 103% | viability, T/C [2] 101% | viability, T/C [3] 108% | viability, T/C [4] 103% | viability, T/C [5] 91.1% | viability, T/C [6] 20.7% | viability, T/C [7] 105% | viability, T/C [8] 98.7% | viability, T/C [9] 106% | viability, T/C [10] 95.6% | viability, T/C [11] 97.5% | viability, T/C [12] 18.8% | viability, T/C [13] 96.7% | viability, T/C [14] 94.9% | viability, T/C [15] 102% | viability, T/C [16] 98.2% | viability, T/C [17] 101% | viability, T/C [18] 25.6% | viability, T/C [19] 92.9% | viability, T/C [20] 87.4% | viability, T/C [21] 93.3% | viability, T/C [22] 96.7% | viability, T/C [23] 83.8% | viability, T/C [24] 18.5% | viability, T/C [25] 67.8% | viability, T/C [26] 70.7% | viability, T/C [27] 71.6% | viability, T/C [28] 72.5% | viability, T/C [29] 62.2% | viability, T/C [30] 16%
4.31 µM: IC50 (second compound 10 µM)
6.81 µM: IC50 (second compound 1 µM)
6.33 µM: IC50 (second compound 0.316 µM)
5.75 µM: IC50 (second compound 3.16 µM)

CC1COCCN1c1cc(C2(S(C)(=N)=O)CC2)nc(-c2ccnc3[nH]ccc23)n1 (stereo not given) + CC(CO)NC(=O)c1cc(-c2ccc(Cl)cc2)nn(-c2cnn(C)c2)c1=O
3.62 µM: IC50 (second compound 1 µM)
3 µM: IC50 (second compound 0.316 µM)
1.74 µM: IC50 (second compound 10 µM)
inactive: viability, T/C [1] 106% | viability, T/C [2] 114% | viability, T/C [3] 105% | viability, T/C [4] 82.9% | viability, T/C [5] 51% | viability, T/C [6] 34.4% | viability, T/C [7] 107% | viability, T/C [8] 104% | viability, T/C [9] 105% | viability, T/C [10] 87.3% | viability, T/C [11] 48.4% | viability, T/C [12] 31.9% | viability, T/C [13] 114% | viability, T/C [14] 107% | viability, T/C [15] 99.5% | viability, T/C [16] 89.4% | viability, T/C [17] 50.8% | viability, T/C [18] 31.2% | viability, T/C [19] 102% | viability, T/C [20] 88.1% | viability, T/C [21] 94.9% | viability, T/C [22] 84.3% | viability, T/C [23] 47.7% | viability, T/C [24] 28.4% | viability, T/C [25] 78.7% | viability, T/C [26] 74.2% | viability, T/C [27] 80.8% | viability, T/C [28] 63.9% | viability, T/C [29] 34.7% | viability, T/C [30] 25.4%
2.94 µM: IC50 (second compound 3.16 µM)
3.2 µM: IC50 (second compound 0.1 µM)

CCN(c1cc(-c2ccc(CN3CCOCC3)cc2)cc(C(=O)NCc2c(C)cc(C)[nH]c2=O)c1C)C1CCOCC1 + CC(CO)NC(=O)c1cc(-c2ccc(Cl)cc2)nn(-c2cnn(C)c2)c1=O
inactive: viability, T/C [31] 103% | viability, T/C [32] 100% | viability, T/C [33] 102% | viability, T/C [34] 93.1% | viability, T/C [35] 96.9% | viability, T/C [36] 93.9% | viability, T/C [37] 107% | viability, T/C [38] 102% | viability, T/C [39] 100% | viability, T/C [40] 103% | viability, T/C [41] 94.8% | viability, T/C [42] 87% | viability, T/C [43] 102% | viability, T/C [44] 99% | viability, T/C [45] 110% | viability, T/C [46] 97% | viability, T/C [47] 95.5% | viability, T/C [48] 86.5% | viability, T/C [49] 91.9% | viability, T/C [50] 89.4% | viability, T/C [51] 104% | viability, T/C [52] 85% | viability, T/C [53] 81% | viability, T/C [54] 83% | viability, T/C [55] 69.1% | viability, T/C [56] 71.1% | viability, T/C [57] 76.4% | viability, T/C [58] 76.2% | viability, T/C [59] 69.9% | viability, T/C [60] 72.9%
> 3 µM: IC50 (second compound 0.1 µM) | IC50 (second compound 0.316 µM) | IC50 (second compound 1 µM) | IC50 (second compound 3.16 µM) | IC50 (second compound 10 µM)

Nc1ncn(C2CC(O)C(CO)S2)c(=O)n1 (stereo not given) + CC(CO)NC(=O)c1cc(-c2ccc(Cl)cc2)nn(-c2cnn(C)c2)c1=O
inactive: viability, T/C (second compound 0.1 µM, first compound 0.000949 µM) 94.1% | viability, T/C (second compound 0.1 µM, first compound 0.003 µM) 94% | viability, T/C [31] 98.8% | viability, T/C [32] 91% | viability, T/C [33] 88.9% | viability, T/C [34] 73.5% | viability, T/C (second compound 0.316 µM, first compound 0.000949 µM) 92.3% | viability, T/C (second compound 0.316 µM, first compound 0.003 µM) 95% | viability, T/C [37] 96.3% | viability, T/C [38] 92.6% | viability, T/C [39] 82.7% | viability, T/C [40] 77.7% | viability, T/C (second compound 1 µM, first compound 0.000949 µM) 97.7% | viability, T/C (second compound 1 µM, first compound 0.003 µM) 103% | viability, T/C [43] 102% | viability, T/C [44] 91.8% | viability, T/C [45] 87.8% | viability, T/C [46] 80.7% | viability, T/C (second compound 3.16 µM, first compound 0.000949 µM) 90.7% | viability, T/C (second compound 3.16 µM, first compound 0.003 µM) 88.3% | viability, T/C [49] 89.4% | viability, T/C [50] 83.2% | viability, T/C [51] 82.7% | viability, T/C [52] 72.2% | viability, T/C (second compound 10 µM, first compound 0.000949 µM) 71.9% | viability, T/C (second compound 10 µM, first compound 0.003 µM) 67.7% | viability, T/C [55] 67.6% | viability, T/C [56] 67.4% | viability, T/C [57] 61.9% | viability, T/C [58] 60.5%
> 0.3 µM: IC50 (second compound 0.1 µM) | IC50 (second compound 0.316 µM) | IC50 (second compound 1 µM) | IC50 (second compound 3.16 µM) | IC50 (second compound 10 µM)

O=C(C=Cn1cnc(-c2cc(C(F)(F)F)cc(C(F)(F)F)c2)n1)NNc1cnccn1 + CC(CO)NC(=O)c1cc(-c2ccc(Cl)cc2)nn(-c2cnn(C)c2)c1=O
0.0498 µM: IC50 (second compound 10 µM)
0.106 µM: IC50 (second compound 0.316 µM)
0.0977 µM: IC50 (second compound 1 µM)
0.0881 µM: IC50 (second compound 0.1 µM)
inactive: viability, T/C [31] 85.4% | viability, T/C [32] 91% | viability, T/C [33] 47% | viability, T/C [34] 31.1% | viability, T/C [35] 22.5% | viability, T/C [36] 13.4% | viability, T/C [37] 84.6% | viability, T/C [38] 75.5% | viability, T/C [39] 49.8% | viability, T/C [40] 32% | viability, T/C [41] 20.2% | viability, T/C [42] 13.2% | viability, T/C [43] 93.6% | viability, T/C [44] 76.5% | viability, T/C [45] 50.5% | viability, T/C [46] 28.9% | viability, T/C [47] 19.1% | viability, T/C [48] 14.3% | viability, T/C [49] 84.5% | viability, T/C [50] 67.8% | viability, T/C [51] 47% | viability, T/C [52] 29.6% | viability, T/C [53] 17.7% | viability, T/C [54] 14.7% | viability, T/C [55] 66.2% | viability, T/C [56] 58.9% | viability, T/C [57] 39.1% | viability, T/C [58] 22.4% | viability, T/C [59] 18.5% | viability, T/C [60] 13.2%
0.0802 µM: IC50 (second compound 3.16 µM)
